ChEMBL document CHEMBL1201862, “PubChem BioAssay data set” (2004)
The source made the active and inactive calls.

What was measured:
[1] = blockade of melanocortin 4 receptor signaling – cell-based, plate reader, cherry pick, counter-screen for LGR2 antagonist project, dose response (AID 743444); format: functional;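 also: transfected HEK 293 cells stimulated with alpha-MSH peptide; potency of inhibitors of the alpha-MSH evoked signal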
[2] = blockers of bursicon-stimulated LGR2 cAMP reporter – cell-based, HEK293, CRE-luciferase reporter, cherry pick, set 2, dose response (AID 743343); format: functional;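 also: transfected cells were stimulated with diluted bursicon conditioned medium after compound addition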
[3] = viability loss in HEK293 cells – cell-based, plate reader, cherry-picked samples, cytotoxicity control, dose response (AID 743446); format: functional
[4] = A549 cell cytotoxicity, dose response, cytotoxicity control, plate reader, cherry-pick, antagonist series (AID 743412); format: functional, cell-based
cells [5] = format: functional, cell-based
cells [6] = format: functional, cell-based; remark: listed apart in the source
[7] = toxicity toward HepG2 liver cells – cell-based, plate reader, cherry-pick, antagonist series, cytotoxicity control, dose response (AID 743416); format: functional
Galanin receptor type 3 = target: T1, Galanin receptor type 3 (Homo sapiens, UniProt O60755); assay: Fluorescence-based cell-based primary high throughput dose response assay to identify antagonists of the Galanin Receptor 3 (GalR3).; format: functional
T1 sequence (O60755 whole entry): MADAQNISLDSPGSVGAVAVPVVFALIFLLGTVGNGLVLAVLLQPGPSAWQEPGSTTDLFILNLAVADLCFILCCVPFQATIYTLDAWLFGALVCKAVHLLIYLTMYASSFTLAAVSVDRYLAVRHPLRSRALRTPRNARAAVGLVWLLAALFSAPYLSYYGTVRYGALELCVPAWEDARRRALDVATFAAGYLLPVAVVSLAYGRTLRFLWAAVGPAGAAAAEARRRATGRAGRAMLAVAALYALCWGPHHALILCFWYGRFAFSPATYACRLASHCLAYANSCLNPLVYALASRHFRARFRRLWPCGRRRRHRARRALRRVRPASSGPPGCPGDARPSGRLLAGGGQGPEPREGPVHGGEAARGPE

[8] = target: T2, COUP transcription factor 2 (Homo sapiens, UniProt P24468); assay: Luminescence-based cell-based high throughput dose response assay to identify inhibitors of COUP-TFII (NR2F2).; format: functional;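 also: HEK293 cells transiently cotransfected with COUP-TFII expression vector and reporter; luciferase reporter luminescence driven by COUP-TFII from the pX2-168 reporter plasmid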
T2 sequence (P24468 whole entry): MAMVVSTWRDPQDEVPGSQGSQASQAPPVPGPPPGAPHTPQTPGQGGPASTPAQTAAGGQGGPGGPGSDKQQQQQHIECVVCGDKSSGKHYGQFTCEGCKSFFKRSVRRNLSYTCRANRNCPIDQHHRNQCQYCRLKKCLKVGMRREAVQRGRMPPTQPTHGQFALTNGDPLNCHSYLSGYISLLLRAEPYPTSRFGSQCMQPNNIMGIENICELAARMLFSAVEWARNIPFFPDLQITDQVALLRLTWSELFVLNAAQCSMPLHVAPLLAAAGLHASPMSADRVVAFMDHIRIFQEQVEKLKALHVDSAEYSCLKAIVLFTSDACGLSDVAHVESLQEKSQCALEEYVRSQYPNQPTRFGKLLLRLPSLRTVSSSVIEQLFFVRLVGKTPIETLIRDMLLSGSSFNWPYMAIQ

cells [9] = format: functional, cell-based; conditions: HEK-CNG
Caspase-6 = target: T3, Caspase-6 (Homo sapiens, UniProt P55212); assay: inhibition of CASP6 peptide cleavage – biochemical, VEID-R110 fluorescence, cherry-pick, dose response (AID 720632)
T3 sequence (P55212 whole entry): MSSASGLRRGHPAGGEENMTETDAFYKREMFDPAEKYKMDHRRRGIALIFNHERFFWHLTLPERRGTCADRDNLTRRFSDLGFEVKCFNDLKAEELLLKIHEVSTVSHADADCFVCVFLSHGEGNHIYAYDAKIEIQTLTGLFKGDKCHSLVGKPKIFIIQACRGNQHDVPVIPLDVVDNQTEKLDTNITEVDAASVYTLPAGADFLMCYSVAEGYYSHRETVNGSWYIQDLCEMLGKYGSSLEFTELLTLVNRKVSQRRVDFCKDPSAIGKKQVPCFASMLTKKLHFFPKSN

[10] = potency of ADAM10 substrate cleavage blockers – biochemical, QFRET, dose response (AID 743254);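 also: ADAM10 enzyme with the DM2 quenched FRET peptide as substrate; EDANS fluorescence gain as the protease cuts the substrate; inhibitor potency against ADAM10 proteolytic activity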
[11] = target: Disintegrin and metalloproteinase domain-containing protein 17 (Homo sapiens, UniProt P78536); assay: inhibition of ADAM17 substrate cleavage – biochemical, quenched FRET substrate, counter-screen for ADAM10 exosite inhibitor project, dose response (AID 743253)
Paired box protein Pax-8 = Paired box protein Pax-8 (Homo sapiens, UniProt Q06710); assay: PAX8 transcriptional activity inhibition in RMG-I – RMG-I cells, luciferase, cherry-pick, dose response (AID 687027); format: functional, cell-based;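 also: luciferase reporter driven by Pax8 target thyroperoxidase promoter measured by SteadyGlo luminescence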
[12] = general cell-killing toxicity readout – plate reader, dry powder samples, cytotoxicity control for PAX8 inhibitor project, dose response (AID 743021); format: functional, cell-based
[13] = Trypanosoma cruzi growth suppression in host cells – NIH3T3 host cells, beta-gal luminescence, confirmation (AID 2044); format: functional, cell-based;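 also: intracellular parasites grown in NIH/3T3 mouse fibroblasts as host cells; luminescent beta-galactosidase reporter signal from transgenic T. cruzi replicating inside host cells; inhibitors lower the luminescence signal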
[14] = HEK-293T cell viability reduction – luminescence, B-cell screen hits, cytotoxicity control for BCR NF-kB inhibitor project, dose response (AID 489021); format: functional, cell-based;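 also: HEK-293T cells carrying an NF-kB luciferase reporter; cells exposed to compound for about 14 hours before viability readout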
[15] = NIH3T3 cell viability loss – ATP luminescence, mouse fibroblasts, counter-screen, dose response (AID 2010); format: functional, cell-based;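 also: cells exposed to compound for about 90 hours before reading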

Disintegrin and metalloproteinase domain-containing protein 17, sequence (P78536 whole entry, the tested form may be a part): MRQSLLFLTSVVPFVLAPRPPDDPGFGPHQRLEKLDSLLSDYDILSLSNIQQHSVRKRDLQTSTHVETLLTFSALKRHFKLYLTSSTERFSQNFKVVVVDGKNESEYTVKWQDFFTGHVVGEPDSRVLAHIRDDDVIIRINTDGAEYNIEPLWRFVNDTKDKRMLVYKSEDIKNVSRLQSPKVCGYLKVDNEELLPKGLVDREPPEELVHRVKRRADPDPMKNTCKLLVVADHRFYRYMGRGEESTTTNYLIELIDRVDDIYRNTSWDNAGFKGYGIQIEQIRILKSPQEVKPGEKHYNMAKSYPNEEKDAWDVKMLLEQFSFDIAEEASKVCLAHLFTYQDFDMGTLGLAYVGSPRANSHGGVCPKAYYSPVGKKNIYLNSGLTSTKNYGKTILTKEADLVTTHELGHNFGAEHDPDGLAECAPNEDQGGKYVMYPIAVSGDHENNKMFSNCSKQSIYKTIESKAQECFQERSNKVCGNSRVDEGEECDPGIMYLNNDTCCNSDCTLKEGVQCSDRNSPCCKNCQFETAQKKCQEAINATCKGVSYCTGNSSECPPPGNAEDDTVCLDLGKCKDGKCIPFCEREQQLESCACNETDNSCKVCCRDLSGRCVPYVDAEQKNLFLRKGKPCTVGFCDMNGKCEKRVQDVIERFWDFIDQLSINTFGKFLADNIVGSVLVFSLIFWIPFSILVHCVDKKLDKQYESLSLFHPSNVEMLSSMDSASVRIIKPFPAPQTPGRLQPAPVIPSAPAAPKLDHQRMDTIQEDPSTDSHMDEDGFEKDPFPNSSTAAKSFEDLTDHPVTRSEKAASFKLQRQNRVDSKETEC
Paired box protein Pax-8, sequence (Q06710 whole entry): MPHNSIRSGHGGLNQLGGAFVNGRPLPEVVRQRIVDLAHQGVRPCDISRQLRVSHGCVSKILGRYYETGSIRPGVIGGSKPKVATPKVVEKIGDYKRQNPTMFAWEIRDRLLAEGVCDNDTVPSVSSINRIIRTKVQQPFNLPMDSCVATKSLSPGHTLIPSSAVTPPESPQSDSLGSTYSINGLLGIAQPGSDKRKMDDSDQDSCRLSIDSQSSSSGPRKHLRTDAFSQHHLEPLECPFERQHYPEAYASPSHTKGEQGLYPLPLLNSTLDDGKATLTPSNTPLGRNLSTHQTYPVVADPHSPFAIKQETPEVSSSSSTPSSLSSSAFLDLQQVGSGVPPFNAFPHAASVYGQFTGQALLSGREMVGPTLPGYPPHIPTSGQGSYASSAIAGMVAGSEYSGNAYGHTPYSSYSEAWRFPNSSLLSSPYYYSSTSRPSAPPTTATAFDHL

With CN(c1cccc(Cl)c1)S(=O)(=O)c1cccc(C(=O)Nc2nc3ccccc3[nH]2)c1 the AC50 [1] was 19.6 µM (active), the AC50 [2] was 24.5 µM (active) and the AC50 [3] was 21.1 µM (active). The AC50 [4] was 14 µM (active), the EC50 (cells [5]) was > 350 µM (not active) and the EC50 (cells [6]) was 27.2 µM (active). For the same molecule, the AC50 [7] was 22.1 µM (active).
In the case of Cc1cccc(Cl)c1NC(=O)N1CCCN(c2nc3ccc(Cl)cc3s2)CC1, the IC50 (Galanin receptor type 3) is reported as 2.06 µM (active), the IC50 [8] is reported as 11.3 µM (inactive) and the EC50 (cells [9]) is reported as > 29.9 µM (inactive).
With O=C(O)c1ccc([N+](=O)[O-])c([N+](=O)[O-])c1 the AC50 (Caspase-6) was 12.3 µM (active).
For CCCCC[C@H](C)N1C[C@@H](COCc2ccccc2)Oc2cc(N3CC[C@H](O)C3)ccc2S1(=O)=O, the IC50 [10] was 8.14 µM (active) and the IC50 [11] was > 69.5 µM (inactive).
With C[C@@H]1CCCCO[C@H](CN(C)C(=O)NC2CCCCC2)[C@H](C)CN([C@@H](C)CO)C(=O)c2cc(NS(=O)(=O)c3ccc(Cl)cc3)ccc2O1 the AC50 (Paired box protein Pax-8) was 10.5 µM (active) and the AC50 [12] was 52.5 µM (active).
In the case of CCCCCCCCN1C(=O)[C@@H](CC(=O)NCc2ccc(OC)c(OC)c2)C[C@@]2(C(=O)OC)C1=C[C@H](C(C)C)O[C@@H]2C1CC1, the IC50 [10] is reported as 10.8 µM (inactive) and the IC50 [11] is reported as > 69.5 µM (inactive).
With COc1ccccc1NC(=O)C(=N\O)/C(C)=N/O the AC50 (Caspase-6) was 11.2 µM (active).
In the case of COc1ccc(/C=N/OCC(=O)NC(c2ccccc2)c2ccccc2)cc1OC, the IC50 (Galanin receptor type 3) is reported as 1.23 µM (active), the IC50 [8] is reported as 5.09 µM (active) and the EC50 (cells [9]) is reported as > 29.9 µM (inactive). The EC50 [13] was 0.56 µM (active), the IC50 [14] was > 80 µM (inactive) and the EC50 [15] was > 60 µM (not active).
With O=C(C(=O)c1cc(Br)ccc1O)c1cc(Br)ccc1O the IC50 (Galanin receptor type 3) was 1.1 µM (active) and the EC50 (cells [9]) was > 29.9 µM (inactive).
